Assay results as given in PubChem BioAssay (NCI).
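Cells were grown in 96-well plates and exposed to each compound for 48 hours at five concentrations; endpoints were interpolated linearly between bracketing concentrations, or set to the highest concentration if not reached. Definition used: TGI = concentration required for complete inhibition of growth.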

Key:
Assay in all cases: DTP human tumour cell line panel, 48 h
[1] = system: KM12 colon
[2] = system: MDA-MB-435
[3] = system: SF-268 CNS
[4] = system: T-47D breast
[5] = system: RXF 393 renal
[6] = system: SF-539 CNS
[7] = system: UO-31 renal
[8] = system: HT29 colon
[9] = system: BT-549 breast
[10] = system: SK-MEL-5 melanoma
[11] = system: A549 NSCLC
[12] = system: SW-620 colon
[13] = system: HOP-62 NSCLC
[14] = system: SNB-75 CNS
[15] = system: MOLT-4 leukemia
[16] = system: SN12C renal
[17] = system: A498 renal
[18] = system: K-562 leukemia
[19] = system: CCRF-CEM leukemia
[20] = system: OVCAR-3 ovarian
[21] = system: SR leukemia
[22] = system: MDA-N
[23] = system: SK-MEL-28 melanoma
[24] = system: NCI-H226 lung
[25] = system: NCI/ADR-RES ovarian
[26] = system: COLO 205 colon
[27] = system: OVCAR-8 ovarian
[28] = system: HCT-15 colon
[29] = system: HCC-2998 colon
[30] = system: 786-0 renal
[31] = system: MALME-3M melanoma
[32] = system: UACC-62 melanoma
[33] = system: SNB-19 CNS
[34] = system: M14 melanoma
[35] = system: PC-3 prostate
[36] = system: MCF7 breast
[37] = system: NCI-H460 lung
[38] = system: OVCAR-5 ovarian
[39] = system: ACHN renal
[40] = system: EKVX NSCLC
[41] = system: HL-60(TB) leukemia
[42] = system: HS 578T breast
[43] = system: RPMI-8226 leukemia
[44] = system: IGROV1 ovarian
[45] = system: NCI-H23 lung
[46] = system: U251 CNS
[47] = system: DU-145 prostate
[48] = system: TK-10 renal
[49] = system: SK-OV-3 ovarian
[50] = system: UACC-257 melanoma
[51] = system: HOP-92 NSCLC
[52] = system: SF-295 CNS
[53] = system: SK-MEL-2 melanoma
[54] = system: NCI-H522 lung
[55] = system: HCT-116 colon
[56] = system: LOX IMVI melanoma
[57] = system: MDA-MB-231 breast
[58] = system: OVCAR-4 ovarian
[59] = system: CAKI-1 renal

SMILES: Cc1ccc(C)n2c1nc1ccccc12
- TGI [1]: > 100 µM
- TGI [2]: > 100 µM
- TGI [3]: > 100 µM
- TGI [4]: > 100 µM
- TGI [5]: > 100 µM
- TGI [6]: > 100 µM
- TGI [7]: > 100 µM
- TGI [8]: > 100 µM
- TGI [9]: > 100 µM
- TGI [10]: > 100 µM
- TGI [11]: > 100 µM
- TGI [12]: > 100 µM
- TGI [13]: > 100 µM
- TGI [14]: > 100 µM
- TGI [15]: > 100 µM
- TGI [16]: > 100 µM
- TGI [17]: 33.7 µM
- TGI [18]: > 100 µM
- TGI [19]: > 100 µM
- TGI [20]: > 100 µM
- TGI [21]: > 100 µM
- TGI [22]: > 100 µM
- TGI [23]: > 100 µM
- TGI [24]: > 100 µM
- TGI [25]: > 100 µM
- TGI [26]: > 100 µM
- TGI [27]: > 100 µM
- TGI [28]: > 100 µM
- TGI [29]: > 100 µM
- TGI [30]: > 100 µM
- TGI [31]: > 100 µM
- TGI [32]: > 100 µM
- TGI [33]: > 100 µM
- TGI [34]: > 100 µM
- TGI [35]: > 100 µM
- TGI [36]: > 100 µM
- TGI [37]: > 100 µM
- TGI [38]: > 100 µM
- TGI [39]: > 100 µM
- TGI [40]: > 100 µM
- TGI [41]: > 100 µM
- TGI [42]: > 100 µM
- TGI [43]: > 100 µM
- TGI [44]: > 100 µM
- TGI [45]: > 100 µM
- TGI [46]: > 100 µM
- TGI [47]: > 100 µM
- TGI [48]: > 100 µM
- TGI [49]: > 100 µM
- TGI [50]: > 100 µM
- TGI [51]: > 100 µM
- TGI [52]: > 100 µM

SMILES: CC(C)CC(N)C(=O)Nc1ccc2ccccc2c1 (stereo not drawn)
- TGI [1]: > 100 µM
- TGI [3]: > 100 µM
- TGI [4]: > 100 µM
- TGI [5]: > 100 µM
- TGI [6]: > 100 µM
- TGI [7]: > 100 µM
- TGI [8]: > 100 µM
- TGI [9]: > 100 µM
- TGI [10]: > 100 µM
- TGI [11]: > 100 µM
- TGI [12]: > 100 µM
- TGI [13]: > 100 µM
- TGI [14]: > 100 µM
- TGI [15]: > 100 µM
- TGI [16]: > 100 µM
- TGI [53]: > 100 µM
- TGI [17]: > 100 µM
- TGI [18]: > 100 µM
- TGI [19]: > 100 µM
- TGI [20]: > 100 µM
- TGI [21]: > 100 µM
- TGI [22]: > 100 µM
- TGI [23]: > 100 µM
- TGI [24]: > 100 µM
- TGI [54]: > 100 µM
- TGI [25]: > 100 µM
- TGI [26]: > 100 µM
- TGI [27]: > 100 µM
- TGI [28]: > 100 µM
- TGI [29]: > 100 µM
- TGI [30]: > 100 µM
- TGI [31]: > 100 µM
- TGI [32]: > 100 µM
- TGI [33]: > 100 µM
- TGI [34]: > 100 µM
- TGI [35]: > 100 µM
- TGI [36]: > 100 µM
- TGI [55]: > 100 µM
- TGI [38]: > 100 µM
- TGI [39]: > 100 µM
- TGI [40]: > 100 µM
- TGI [56]: > 100 µM
- TGI [41]: > 100 µM
- TGI [42]: > 100 µM
- TGI [43]: > 100 µM
- TGI [44]: > 100 µM
- TGI [57]: > 100 µM
- TGI [45]: > 100 µM
- TGI [58]: 54.5 µM
- TGI [59]: > 100 µM
- TGI [46]: > 100 µM
- TGI [47]: > 100 µM
- TGI [48]: > 100 µM
- TGI [49]: > 100 µM
- TGI [50]: > 100 µM
- TGI [52]: > 100 µM

SMILES: CCC1(c2ccc(N3C(=O)c4cc(OC)c(OC)cc4C3=O)cc2)CCC(=O)NC1=O (stereo not drawn)
- TGI [1]: > 10 µM
- TGI [2]: > 10 µM
- TGI [3]: > 10 µM
- TGI [4]: > 10 µM
- TGI [5]: > 10 µM
- TGI [6]: > 10 µM
- TGI [7]: > 10 µM
- TGI [8]: > 10 µM
- TGI [9]: > 10 µM
- TGI [10]: > 10 µM
- TGI [11]: > 10 µM
- TGI [12]: > 10 µM
- TGI [13]: > 10 µM
- TGI [15]: > 10 µM
- TGI [16]: > 10 µM
- TGI [53]: > 10 µM
- TGI [17]: > 10 µM
- TGI [18]: > 10 µM
- TGI [19]: > 10 µM
- TGI [20]: > 10 µM
- TGI [21]: > 10 µM
- TGI [22]: > 10 µM
- TGI [23]: > 10 µM
- TGI [24]: > 10 µM
- TGI [25]: > 10 µM
- TGI [26]: > 10 µM
- TGI [27]: > 10 µM
- TGI [28]: > 10 µM
- TGI [29]: > 10 µM
- TGI [30]: > 10 µM
- TGI [31]: > 10 µM
- TGI [32]: > 10 µM
- TGI [33]: > 10 µM
- TGI [34]: > 10 µM
- TGI [35]: > 10 µM
- TGI [36]: > 10 µM
- TGI [37]: > 10 µM
- TGI [55]: > 10 µM
- TGI [38]: > 10 µM
- TGI [39]: > 10 µM
- TGI [40]: > 10 µM
- TGI [56]: > 10 µM
- TGI [41]: > 10 µM
- TGI [42]: > 10 µM
- TGI [43]: > 10 µM
- TGI [44]: > 10 µM
- TGI [57]: > 10 µM
- TGI [45]: > 10 µM
- TGI [58]: > 10 µM
- TGI [59]: > 10 µM
- TGI [46]: > 10 µM
- TGI [47]: > 10 µM
- TGI [48]: > 10 µM
- TGI [49]: > 10 µM
- TGI [50]: > 10 µM
- TGI [51]: > 10 µM
- TGI [52]: > 10 µM

SMILES: O=Cc1cc(C(=O)OCc2ccccc2)n(S(=O)(=O)c2ccccc2)c1
- TGI [1]: 37.6 µM
- TGI [2]: 12.9 µM
- TGI [3]: 65.5 µM
- TGI [4]: > 100 µM
- TGI [5]: 94.9 µM
- TGI [6]: 28.6 µM
- TGI [7]: 44.1 µM
- TGI [8]: 48.4 µM
- TGI [9]: 33.9 µM
- TGI [10]: 20.2 µM
- TGI [11]: 68.7 µM
- TGI [13]: 33.7 µM
- TGI [14]: 82.1 µM
- TGI [15]: > 100 µM
- TGI [16]: 66.1 µM
- TGI [53]: 39.6 µM
- TGI [18]: > 100 µM
- TGI [19]: > 100 µM
- TGI [20]: 35.6 µM
- TGI [21]: > 100 µM
- TGI [22]: 30.3 µM
- TGI [23]: 30.2 µM
- TGI [54]: > 100 µM
- TGI [25]: 98.6 µM
- TGI [26]: 55.1 µM
- TGI [27]: > 100 µM
- TGI [28]: 50.7 µM
- TGI [29]: 33.7 µM
- TGI [30]: > 100 µM
- TGI [31]: > 100 µM
- TGI [32]: 31.6 µM
- TGI [33]: > 100 µM
- TGI [34]: 36.2 µM
- TGI [35]: 53.6 µM
- TGI [36]: 67.2 µM
- TGI [37]: 70.2 µM
- TGI [55]: 25.7 µM
- TGI [38]: 37.6 µM
- TGI [39]: 36.6 µM
- TGI [40]: 94.4 µM
- TGI [56]: 62.5 µM
- TGI [41]: 63 µM
- TGI [42]: 49.2 µM
- TGI [44]: 84 µM
- TGI [57]: 78.1 µM
- TGI [45]: 60.9 µM
- TGI [58]: > 100 µM
- TGI [59]: 55.2 µM
- TGI [47]: > 100 µM
- TGI [48]: 69.6 µM
- TGI [49]: 66.3 µM
- TGI [50]: 64 µM
- TGI [52]: 29 µM
